Tested on: global protein disulfide bonds
Assay: Global protein disulfide bonds (Elman's reagent, biotin-switch assay)
Assay type: cell-based
Conditions: Elman's reagent or biotin-switch assay
Text: FIGS. 3A-3C provide graphs and schemes showing the preliminary data that directed the plan to find the mechanism of action of identified anti-aging compounds. (A) Substantial decrease in oxidized sulfhydryl groups were detected after several days of treatment with VA. […] The inventors decided to check if VA can participate in catalytic reactions performed by the enzymes involved in generation of reductive potential or its utilization by transferring the electrons to oxidized disulfide bonds t. […] In particular, catalytic reduction of molecular oxygen and cytochrome c was observed. Therefore, the inventors decided to take into account the most prominent enzymes that were noted to be involved into initiation or prevention aging-like traits.
Based on results obtained on tissue cultured cells (increased RLS) and an increase in the numbers of HSC surrogate cells (LTC-IC or CFU), the inventors set their future goal to develop a novel pharmacological treatment for AA patients and potentially for other BMF. […] The only persistent effect of VA was considerable reduction in global protein disulfide bonds (up to 30%) detected by Elman's reagent or direct labelling of reduced sulfhydryl groups with biotin-switch assay (FIG. 3A). […]

## O=C1NC(=O)C(=NO)C(=O)N1 [VA, 2,4,5,6(1H,3H)-pyrimidine-tetrone 5-oxime]
  reduction in global protein disulfide bonds: up to 30%

From patent US11723907B2, “Anti-aging compounds” (THE CLEVELAND CLINIC FOUNDATION, priority 2017, dated 2023)
